Measured values as given in paper PMC4657098, “A Review of the Updated Pharmacophore for the Alpha 5 GABA(A) Benzodiazepine Receptor Model” (International Journal of Medicinal Chemistry, 2015).
Read-outs that look alike come from different tables or passages of the source.

How the values were obtained:
Parameters in all cases: expressed in transfected cells
[1] = molecular target: α5β3γ2 GABAA/BzR (Homo sapiens, UniProt P18507+P31644); test: Competition binding to HEK cell membranes, α5β3γ2
[2] = molecular target: α3β3γ2 GABAA/BzR (Homo sapiens, UniProt P18507+P34903); test: Competition binding to HEK cell membranes, α3β3γ2
[3] = molecular target: α6β3γ2 GABAA/BzR (Homo sapiens, UniProt P18507+Q16445); test: Competition binding to HEK cell membranes, α6β3γ2
[4] = molecular target: α1β3γ2 GABAA/BzR (Homo sapiens, UniProt P14867+P18507); test: Competition binding to HEK cell membranes, α1β3γ2
[5] = molecular target: α2β3γ2 GABAA/BzR (Homo sapiens, UniProt P18507+P47869); test: Competition binding to HEK cell membranes, α2β3γ2

Question: How did the Ki ([1]; read-out: Ki α5) turn out when `CCOc1cc2c(cn1)[nH]c1ccccc12` [3 EBC, 3-Ethoxy-beta-carboline] was run?
Answer: 826 nM

Question: What about the Ki ([2]; read-out: Ki α3) of the same compound?
Answer: 28.2 nM

Question: What about the Ki ([3]; Ki α6) of the same compound?
Answer: 1000 nM

Question: What does the source list for `COCc1c(C(=O)OC(C)C)ncc2[nH]c3ccc(OCc4ccccc4)cc3c12` [ABECARNIL, reference compound]?
Answer: Ki ([1]; Ki α5): 6 nM; Ki ([4]; Ki α1): 12.4 nM; Ki ([5]; Ki α2): 15.3 nM; Ki ([2]; Ki α3): 7.5 nM; Ki ([3]; Ki α6): 1000 nM

Question: How did the Ki ([1]; Ki α5) turn out when `CC(C)(C)OC(=O)c1ncn2c1[C@@H]1CCCN1C(=O)c1c(Br)cccc1-2` [BRETAZENIL, reference compound] was run?
Answer: 0.5 nM

Question: What about the Ki ([4]; Ki α1) of the same compound?
Answer: 0.35 nM

Question: And the Ki ([5]; Ki α2)?
Answer: 0.64 nM

Question: What about the Ki ([2]; Ki α3) of the same compound?
Answer: 0.2 nM

Question: And the Ki ([3]; Ki α6)?
Answer: 12.7 nM

Question: How did the Ki ([1]; read-out: Ki α5) turn out when `CN1Cc2c(C(=O)OC3CC3)ncn2-c2ccc(Cl)cc2C1=O` [CD-214] was run?
Answer: 9.8 nM

Question: And the Ki ([4]; read-out: Ki α1)?
Answer: 16.4 nM

Question: What about the Ki ([5]; read-out: Ki α2) of the same compound?
Answer: 48.2 nM

Question: What about the Ki ([2]; read-out: Ki α3) of the same compound?
Answer: 42.5 nM

Question: And the Ki ([3]; read-out: Ki α6)?
Answer: 168 nM

Question: For `COc1ccc(-n2nc3c4ccccc4[nH]cc-3c2=O)cc1` [CGS9895, reference compound], which Ki ([4]; read-out: Ki α1) is on record?
Answer: 0.21 nM

Question: What about the Ki ([3]; read-out: Ki α6) of the same compound?
Answer: 9.3 nM

Question: With `O=C1C2C=Nc3ccccc3C2=NN1c1ccc(Cl)cc1` (centres unmarked) [CGS9896, reference compound] as the compound, how does the Ki ([4]; Ki α1) read?
Answer: 0.28 nM

Question: And the Ki ([3]; Ki α6)?
Answer: 181 nM

Question: Which results are given for `CC[C@@H](C)OC(=O)c1cc2c(cn1)[nH]c1ccccc12` [CM-A49 (R)]?
Answer: Ki ([1]; read-out: Ki α5): 69 nM; Ki ([4]; read-out: Ki α1): 7.7 nM; Ki ([5]; read-out: Ki α2): 32.5 nM; Ki ([2]; read-out: Ki α3): 43 nM; Ki ([3]; read-out: Ki α6): 1000 nM

Question: How did the Ki ([1]; read-out: Ki α5) turn out when `CC[C@H](C)OC(=O)c1cc2c(cn1)[nH]c1ccccc12` [CM-A50 (S)] was run?
Answer: 144 nM

Question: What about the Ki ([4]; read-out: Ki α1) of the same compound?
Answer: 17 nM

Question: What about the Ki ([5]; read-out: Ki α2) of the same compound?
Answer: 59 nM

Question: What about the Ki ([2]; read-out: Ki α3) of the same compound?
Answer: 88 nM

Question: And the Ki ([3]; read-out: Ki α6)?
Answer: 1000 nM

Question: `CCCCc1cc2c(cn1)[nH]c1ccc(F)cc12` [CM-A58] was tested. Which Ki ([1]; read-out: Ki α5) did it give?
Answer: 1000 nM

Question: And the Ki ([4]; read-out: Ki α1)?
Answer: 16 nM

Question: What about the Ki ([5]; read-out: Ki α2) of the same compound?
Answer: 120 nM

Question: And the Ki ([2]; read-out: Ki α3)?
Answer: 184 nM

Question: What about the Ki ([3]; read-out: Ki α6) of the same compound?
Answer: 1010 nM

Question: Which Ki ([1]; read-out: Ki α5) does the source give for `CCC(C)OC(=O)c1cc2c(cn1)[nH]c1ccccc12` (centres unmarked) [CM-A64] here?
Answer: 216 nM

Question: And the Ki ([4]; read-out: Ki α1)?
Answer: 18 nM

Question: And the Ki ([5]; read-out: Ki α2)?
Answer: 60 nM

Question: What about the Ki ([2]; read-out: Ki α3) of the same compound?
Answer: 116 nM

Question: What about the Ki ([3]; read-out: Ki α6) of the same compound?
Answer: 1000 nM

Question: Which Ki ([1]; read-out: Ki α5) does the source give for `CN1Cc2c(C(=O)OC(C)(C)C)ncn2-c2ccc(N3CCCC3)cc2C1=O` [DM-139] here?
Answer: 9.25 nM

Question: And the Ki ([4]; read-out: Ki α1)?
Answer: 5.8 nM

Question: What about the Ki ([2]; read-out: Ki α3) of the same compound?
Answer: 169 nM

Question: What about the Ki ([3]; read-out: Ki α6) of the same compound?
Answer: 325 nM

Question: For `COc1ccc2c(c1)C(=O)N(C)Cc1c(C(=O)OC(C)(C)C)ncn1-2` [DM-215], which Ki ([1]; read-out: Ki α5) is on record?
Answer: 0.293 nM

Question: And the Ki ([4]; read-out: Ki α1)?
Answer: 6.74 nM

Question: What about the Ki ([2]; read-out: Ki α3) of the same compound?
Answer: 7.42 nM

Question: And the Ki ([3]; read-out: Ki α6)?
Answer: 8.28 nM

Question: With `CN1Cc2c(C(=O)OC(C)(C)C)ncn2-c2ccc(O)cc2C1=O` [DM-239] as the compound, how does the Ki ([1]; read-out: Ki α5) read?
Answer: 0.14 nM

Question: What about the Ki ([4]; read-out: Ki α1) of the same compound?
Answer: 1.5 nM

Question: What about the Ki ([2]; read-out: Ki α3) of the same compound?
Answer: 0.53 nM

Question: And the Ki ([3]; read-out: Ki α6)?
Answer: 6.89 nM

Question: Which results are given for `O=C1CN=C(c2ccccc2Cl)c2cc(Br)ccc2N1` [DM-II-72]?
Answer: Ki ([1]; read-out: Ki α5): 2.02 nM; Ki ([5]; read-out: Ki α2): 1.37 nM

Question: `Cc1nnc2n1-c1ccc(Br)cc1C(c1ccccc1Cl)=NC2` [DM-II-90 (C17H12N4BrCl)] was tested. Which Ki ([1]; read-out: Ki α5) did it give?
Answer: 0.37 nM

Question: And the Ki ([5]; read-out: Ki α2)?
Answer: 1 nM

Question: What about the Ki ([2]; read-out: Ki α3) of the same compound?
Answer: 0.63 nM

Question: What about the Ki ([3]; read-out: Ki α6) of the same compound?
Answer: 5000 nM

Question: `O=C(O)c1ncn2c1CN=C(c1ccccc1)c1cc(Br)ccc1-2` [DM-III-01] was tested. Which Ki ([1]; read-out: Ki α5) did it give?
Answer: 4.73 nM

Question: And the Ki ([5]; read-out: Ki α2)?
Answer: 12 nM

Question: How did the Ki ([1]; read-out: Ki α5) turn out when `O=[N+]([O-])c1ccc2[nH]c3cnc([N+](=O)[O-])cc3c2c1` [EDC-I-071] was run?
Answer: 314 nM

Question: What about the Ki ([4]; read-out: Ki α1) of the same compound?
Answer: 12.9 nM

Question: And the Ki ([5]; read-out: Ki α2)?
Answer: 83.1 nM

Question: And the Ki ([3]; read-out: Ki α6)?
Answer: 5000 nM

Question: Which Ki ([1]; read-out: Ki α5) does the source give for `S=C=Nc1ccc2[nH]c3cnc(N=C=S)cc3c2c1` [EDC-I-093] here?
Answer: 2910 nM

Question: And the Ki ([4]; read-out: Ki α1)?
Answer: 13.6 nM

Question: What about the Ki ([5]; read-out: Ki α2) of the same compound?
Answer: 423 nM

Question: And the Ki ([3]; read-out: Ki α6)?
Answer: 5000 nM

Question: How did the Ki ([1]; read-out: Ki α5) turn out when `CCOC(=O)c1ncc2[nH]c3ccc(OCc4cccc5ccccc45)cc3c2c1COC` [EDC-II-044] was run?
Answer: 323 nM

Question: What about the Ki ([4]; read-out: Ki α1) of the same compound?
Answer: 15.4 nM

Question: What about the Ki ([2]; read-out: Ki α3) of the same compound?
Answer: 293 nM

Question: And the Ki ([3]; read-out: Ki α6)?
Answer: 1000 nM

Question: How did the Ki ([1]; read-out: Ki α5) turn out when `C#Cc1ccc2c(c1)C(c1ccccc1F)=NCc1c(C(=O)NC)ncn1-2` [HJ-I-037] was run?
Answer: 0.818 nM

Question: And the Ki ([4]; read-out: Ki α1)?
Answer: 15.1 nM

Question: What about the Ki ([5]; read-out: Ki α2) of the same compound?
Answer: 8.13 nM

Question: What about the Ki ([2]; read-out: Ki α3) of the same compound?
Answer: 28.3 nM

Question: Which results are given for `C#Cc1ccc2c(c1)C(c1ccccc1)=NCC(NC)=N2` [Hz148]?
Answer: Ki ([1]; read-out: Ki α5): 256 nM; Ki ([4]; read-out: Ki α1): 11 nM; Ki ([5]; read-out: Ki α2): 5000 nM; Ki ([3]; read-out: Ki α6): 5000 nM

Question: What does the source list for `O=C1CN=C(c2cccs2)c2cc(Br)ccc2N1` [JC184]?
Answer: Ki ([1]; read-out: Ki α5): 6.71 nM; Ki ([4]; read-out: Ki α1): 9.61 nM; Ki ([5]; read-out: Ki α2): 10.5 nM

Question: How did the Ki ([1]; read-out: Ki α5) turn out when `C#Cc1ccc2c(c1)C(c1cccs1)=NCC(=O)N2` [JC208] was run?
Answer: 5.04 nM

Question: What about the Ki ([4]; read-out: Ki α1) of the same compound?
Answer: 22.4 nM

Question: And the Ki ([5]; read-out: Ki α2)?
Answer: 18.9 nM

Question: For `C#Cc1ccc2c(c1)C(c1cccs1)=NCC(=O)N2C` [JC222], which Ki ([1]; read-out: Ki α5) is on record?
Answer: 17.6 nM

Question: What about the Ki ([4]; read-out: Ki α1) of the same compound?
Answer: 86.7 nM

Question: What about the Ki ([5]; read-out: Ki α2) of the same compound?
Answer: 45.1 nM

Question: How did the Ki ([1]; read-out: Ki α5) turn out when `CC(C)(C)OC(=O)c1ncn2c1C1CCCN1C(=O)c1cc(Br)ccc1-2` (centres unmarked) [JYI-01] was run?
Answer: 10.6 nM

Question: What about the Ki ([4]; read-out: Ki α1) of the same compound?
Answer: 59.2 nM

Question: And the Ki ([2]; read-out: Ki α3)?
Answer: 96 nM

Question: And the Ki ([3]; read-out: Ki α6)?
Answer: 2.88 nM

Question: How did the Ki ([1]; read-out: Ki α5) turn out when `C#Cc1ccc2c(c1)C(=O)N1CCCC1c1c(C(=O)OC(C)(C)C)ncn1-2` (centres unmarked) [JYI-03] was run?
Answer: 0.954 nM

Question: What about the Ki ([4]; read-out: Ki α1) of the same compound?
Answer: 185 nM

Question: What about the Ki ([5]; read-out: Ki α2) of the same compound?
Answer: 107 nM

Question: And the Ki ([3]; read-out: Ki α6)?
Answer: 3.34 nM

Question: Which results are given for `C=Cc1ccc2c(c1)C(=O)N1CCC[C@H]1c1c(C(=O)OC(C)(C)C)ncn1-2` [JYI-04]?
Answer: Ki ([1]; read-out: Ki α5): 0.51 nM; Ki ([4]; read-out: Ki α1): 28.3 nM; Ki ([5]; read-out: Ki α2): 16 nM; Ki ([3]; read-out: Ki α6): 1.57 nM

Question: For `O=C(OCC(F)(F)F)c1ncn2c1C1CCCN1C(=O)c1cc(Br)ccc1-2` (centres unmarked) [JYI-10], which Ki ([1]; read-out: Ki α5) is on record?
Answer: 12.3 nM

Question: And the Ki ([4]; read-out: Ki α1)?
Answer: 5000 nM

Question: What about the Ki ([5]; read-out: Ki α2) of the same compound?
Answer: 368 nM

Question: And the Ki ([3]; read-out: Ki α6)?
Answer: 23 nM
